Legend:
Format in all cases: in vivo
[1] = system: diet-induced obese (DIO) AKR/J mouse; test: Food consumption in diet-induced obese AKR/J mice; settings: compared to vehicle-treated animals; doses and regimen as in methods
Procedure: (§1) In each experiment, BW of each animal was measured and recorded three times weekly throughout the treatment period. Body mass was obtained weekly on days 0, 7, 13, 20, and 27 of treatment. The effects of selective PPARα, δ, and γ agonists on food consumption were also assessed. Food consumption is expressed as total energy consumed (kcal) over a 24-period and as cumulative consumption over the course of the experiment.
The fat content of Research Diets D12331 chow results in pellets that crumbles making it difficult to quantify food consumption thus, Research Diets D12451 chow (4.7 kcal/g (45% kcal from fat, 35% kcal from carbohydrates and 20% kcal from protein)) was used in studies where food consumption was determined as these pellets are more solid. The animals were transitioned two weeks before compound dosing from Research Diets D12331 chow to Research Diets D12451 chow. Previous experiments (data not presented) have shown that animals fed this diet maintain the same BW and fat mass level as observed at the time of transition.
(§2) Experiment 1 was designed to study the effects of a selective PPARα agonist and PPARδ agonist as mono and combination therapy. 48 mice were sorted into 6 groups and blocked such that initial BW and body composition were not different between groups. […] Two additional groups of mice were dosed for the first 14 days with either a PPARα agonist or a PPARδ agonist alone. At day 15, the PPARδ agonist was added to the treatment regimen of animals dosed with PPARα, and the PPARα agonist was added to the dosing material of animals previously dosed with PPARδ alone. The sixth group was dosed with both the PPARα and PPARδ agonists for the entire 28-day period. BW and food consumption were assessed 3 times per week and body composition was measured weekly.
In Experiment 2, 32 mice were sorted into 4 groups (n = 8/group) and dosed with vehicle and a selective PPARγ agonist (GW7845, 3 mg/kg) for 28 days. Rimonabant (RIM, 10 or 30 mg/kg, q.d.), a CB1 receptor antagonist, was used as a positive control for weight loss. As in Experiment 1, BW and food consumption were determined 3 times per week and body composition was measured weekly.

[2] = system: diet-induced obese (DIO) AKR/J mouse; test: Body weight, body composition (qMR) and liver weight in diet-induced obese AKR/J mice; settings: for BW day 0: baseline before treatment; for Fat mass day 28 / Lean mass day 28: qMR; for Liver weight: terminal collection
Procedure: The effects of monotherapy with selective PPAR agonists, combination therapy with PPARα and PPARδ, and treatment with PPARpan agonists were evaluated in four experiments in diet-induced obese (DIO) AKR/J mouse. The AKR/J mouse is a polyoma-susceptible strain originally utilized to study accelerated tumor development. This strain becomes obese and hyperinsulemic when fed a high fat diet. Age-matched, male AKR/J mice were allowed ad libitum access to Research Diet D12331 (Research Diet, Brunswick, NJ) at the Jackson Laboratories (Bar Harbor, ME) beginning at 6 weeks of age. The diet has an energy density of 5.56 kcal/g (58% kcal from fat; 26% kcal from carbohydrates, and 16% kcal from protein). The animals were allowed to become obese, achieving BW >40 grams before shipping to GlaxoSmithKline laboratory animal facility at 13 weeks of age. The mice were housed 4 per cage in standard shoebox cages and were fed the high fat diet until they reached approximately 50 grams. Age-matched lean control animals obtained from Jackson Laboratories were fed a diet of normal chow (3.04 kcal/g energy density, 12% kcal from fat, LabDiet 5001, St. Louis, MO) and used for comparison.
At the beginning of each study, the animals were weighed and body composition obtained using an EchoMRI-100 quantitative magnetic resonance (qMR, EchoMRI, Houston, TX) whole body composition analyzer. […] 16 lean control mice on standard chow were used as reference. All mice were dosed orally with vehicle (0.5% methylcellulose and 0.1% Tween 80, 10 mL/kg) for six days prior to the beginning of dosing for acclimation to handling and treatment before drug treatment was initiated.
as §1
(§3) On the final day of each experiment, a terminal blood sample (800–1000 μL) was obtained via cardiac puncture under isoflurane anesthesia. Whole blood was placed in a Terumo Capiject blood collection tube (Terumo Medical Corp., Elkton, Md, USA), allowed to sit at room temperature for 20 minutes then centrifuged to obtain serum. Serum levels of glucose, triglycerides, glycerol, nonesterified fatty acids, total cholesterol, the high-density lipoprotein cholesterol, and β-hydroxybutyrate were determined in all mice using an Olympus AU640 clinical chemistry immuno-analyzer (Olympus America Inc., Melville, NY, USA). In addition, liver weights were obtained following the terminal blood sample on the final day of the study and samples were used to determine liver fatty acid oxidation activity.
as §2
In Experiment 2, 32 mice were sorted into 4 groups (n = 8/group) and dosed with vehicle and a selective PPARγ agonist (GW7845, 3 mg/kg) for 28 days. Rimonabant (RIM, 10 or 30 mg/kg, q.d.), a CB1 receptor antagonist, was used as a positive control for weight loss. […]

[3] = system: diet-induced obese (DIO) AKR/J mouse; test: Serum clinical chemistry of terminal blood samples, DIO AKR/J mice; settings: serum, end of treatment, 28 days
Procedure: as §3

**Q.** What does the source list for Cc1c(C(=O)NN2CCCCC2)nn(-c2ccc(Cl)cc2Cl)c1-c1ccc(Cl)cc1 [RIM, Rimonabant, reference compound]?
**A.** effect on food consumption (in words) [1]: dose-related decreases in food consumption; BW day 28 ([2]; 10 mg/kg oral, 28 days): 44.1 ± 1.3 grams; BW day 28 ([2]; 30 mg/kg oral, 28 days): 41.8 ± 0.5 grams; effect on FM (in words) ([2]; 28 days, doses as in methods): decreased FM in a dose-dependent manner; BW day 0 ([2]; group dosed 10 mg/kg oral): 50.6 ± 0.8 grams; BW day 0 ([2]; group dosed 30 mg/kg oral): 51.0 ± 0.7 grams; reduction of BW ([2]; highest dose (30 mg/kg), within the first 10 days of treatment): 17%; effect on BW (in words) ([2]; oral, 28 days, GW9578 1, GW0742 30, GW7845 3, RIM 10 and 30 mg/kg, PPARpan agonists): significant, dose-related decreases of BW; Fat mass day 28 ([2]; 10 mg/kg oral, 28 days): 15.0 ± 0.9 grams; Lean mass day 28 ([2]; 10 mg/kg oral, 28 days): 25.2 ± 0.8 grams; Fat mass day 28 ([2]; 30 mg/kg oral, 28 days): 11.6 ± 0.3 grams; Lean mass day 28 ([2]; 30 mg/kg oral, 28 days): 26.5 ± 0.5 grams; Liver weight ([2]; 10 mg/kg oral, 28 days): 2.0 ± 0.1 grams; Liver weight ([2]; 30 mg/kg oral, 28 days): 2.0 ± 0.1 grams; Cholesterol ([3]; 10 mg/kg oral): 147.3 ± 9.1 mg/dL; Glucose ([3]; 10 mg/kg oral): 230.1 ± 16.6 mg/dL; HDL-C ([3]; 10 mg/kg oral): 95.1 ± 4.6 mg/dL; Insulin ([3]; 10 mg/kg oral): 7.2 ± 2.5 ng/mL; NEFA ([3]; 10 mg/kg oral): 0.8 ± 0.05 mEq/L; Triglyceride ([3]; 10 mg/kg oral): 181.4 ± 36.1 mg/dL; bHBA ([3]; 10 mg/kg oral): 2.5 ± 0.2 mg/dL; Cholesterol ([3]; 30 mg/kg oral): 143.4 ± 4.0 mg/dL; Glucose ([3]; 30 mg/kg oral): 215.3 ± 13.0 mg/dL; HDL-C ([3]; 30 mg/kg oral): 116.9 ± 2.6 mg/dL; Insulin ([3]; 30 mg/kg oral): 3.4 ± 0.7 ng/mL; NEFA ([3]; 30 mg/kg oral): 0.9 ± 0.02 mEq/L; Triglyceride ([3]; 30 mg/kg oral): 159.7 ± 16.1 mg/dL; bHBA ([3]; 30 mg/kg oral): 1.8 ± 0.2 mg/dL

Source: paper PMC1940322, “The Effect of PPARα, PPARδ, PPARγ, and PPARpan Agonists on Body Weight, Body Mass, and Serum Lipid Profiles in Diet-Induced Obese AKR/J Mice” (PPAR Research, 2007)
